Experimental data published in US8114902B2, “2-aminobutanol compound and use thereof for medical purposes” (Mitsubishi Tanabe Pharma Corporation, priority 2006, dated 2012).

Columns and labels:
[1] = test system: mouse peripheral blood lymphocyte count; test: Evaluation of mouse peripheral blood lymphocyte count-decreasing effect; assay type: in vivo, male BALB/cAnNCrj mice; conditions: intraperitoneal administration in 20% cyclodextrin, blood collected 24 hr after administration, flow cytometer count
Method: Evaluation of Mouse Peripheral Blood Lymphocyte Count-Decreasing Effect
The compound of the present invention was dissolved or suspended in 20% cyclodextrin (manufactured by NIHON SHOKUHIN KAKO CO., LTD.), and intraperitoneally administered to 7- to 10-week-old male BALB/cAnNCrj mice (Charles River Laboratories Japan, Inc.) at a dose of 0.001-10 mg/kg body weight. At 24 hr after the administration of the compound of the present invention, the peripheral blood (about 0.3 ml) was collected using a tuberculin syringe (manufactured by TERUMO CORPORATION) treated with heparin sodium (manufactured by NovoNordisk) from the postcava of the mice under ether anesthesia. The blood (0.1 ml) was hemolyzed in an automatic hemolysis treatment apparatus (TQ-Prep, manufactured by Beckman Instruments•Coulter) and, using a Flow Cytometer (CYTOMICS FC 500, manufactured by Beckman Instruments•Coulter), the lymphocytes were counted by a gating method using the forward and side scattering of the laser beam as an index and Flow-Count™ Fluorospheres (manufactured by Beckman Instruments•Coulter), which are the standard particles in a known number, as the internal standard. Taking the lymphocyte count of the vehicle group as 100%, the dose necessary for decreasing the lymphocyte count thereof to 50% was calculated and taken as ED50 value (mg/kg body weight).

[2] = Action on heart rate in rat telemetry; assay type: in vivo, male Sprague-Dawley (IGS) rats; conditions: oral administration in 0.5% hydroxypropylmethylcellulose, up to the dose of 10 mg/kg body weight, heart rate measured from 24 hr before to 72 hr after administration
Method: Action on Heart Rate in Rat Telemetry
Male Sprague-Dawley (IGS) rats were anesthetized by intraperitoneal administration of Nembutal (manufactured by DAINIPPON PHARMACEUTICAL CO., LTD.), and a pressure sensor connected to a telemetric transmitter (TL11M2-C50-PTX, manufactured by Data Sciences International) was inserted into the abdominal artery, whereby the transmitter was subcutaneously set in the abdomen. The data of blood pressure and heart rate were recorded by an analysis software (Dataquest A.R.T., Data Sciences International) via a receiver (RPC-1, manufactured by Data Sciences International). After confirmation of the recovery of the circadian rhythm of the heart rate after elapse of 10 days to 2 weeks postoperation, the rats were subjected to the experiment. The compound of the present invention was suspended in 0.5% hydroxypropylmethylcellulose (manufactured by Shin-Etsu Chemical Co., Ltd.) and administered orally. The heart rate was measured from 24 hr before administration to 72 hr after administration.

Compound	mouse peripheral blood lymphocyte count-decreasing effect, ED50 value (dose necessary for decreasing the lymphocyte count to 50% of vehicle group) [1]	influence on heart rate in rats (telemetry) [2]
Cc1ccc(Sc2ccc(-c3ccc(CCC(N)(CO)CO)c(Cl)c3)c(F)c2)cc1 [Example 18, 2-amino-2-{2-[3-chloro-2′-fluoro-4′-(4-methylphenylthio)biphenyl-4-yl]ethyl}propane-1,3-diol]	0.04 mg/kg body weight	
Cc1ccc(Sc2ccc(-c3ccc(CCC(N)(CO)CO)cc3)c(F)c2)cc1 [Example 4, 2-amino-2-{2-[2′-fluoro-4′-(4-methylphenylthio)biphenyl-4-yl]ethyl}propane-1,3-diol]	0.05 mg/kg body weight	did not influence the heart rate
